Laboratory results as given in PubChem BioAssay AID256 (DTP/NCI, 2004).
Several values for one entry are separate records, joined by “and”; a condition that tells them apart may be missing. Equal values may be shown once. Inconclusive results and toxic doses are left out. The calls were made as follows: active = survival T/C of 150% or more; inactive = T/C below 125% in these data.

Tested on: CD2F1 mice, L1210 leukemia ip, survival T/C
Experiment: NCI In Vivo Anticancer Drug Screen. Data for tumor model L1210 Leukemia (intraperitoneal) in CD2F1 (CDF1) mice
Details: higher = longer survival
Outline: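 Read-out first: treated-group measurement over vehicle-control measurement, expressed as a ratio. Animals bore a transplanted tumor line and were dosed with compound or vehicle.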

[1] = endpoint: mean survival time, dose: 25.0 mg/kg/injection, schedule: Q01DX005 (ip), vehicle: water
[2] = endpoint: mean survival time, dose: 50.0 mg/kg/injection, schedule: Q01DX005 (ip), vehicle: water
[3] = endpoint: mean survival time, dose: 100.0 mg/kg/injection, schedule: Q01DX005 (ip), vehicle: water
[4] = endpoint: mean survival time, dose: 200.0 mg/kg/injection, schedule: Q01DX005 (ip), vehicle: water
[5] = endpoint: mean survival time, dose: 50.0 mg/kg/injection, schedule: Q01DX009 (ip), vehicle: saline with Tween-80
[6] = endpoint: mean survival time, dose: 100.0 mg/kg/injection, schedule: Q01DX009 (ip), vehicle: saline with Tween-80
[7] = endpoint: mean survival time, dose: 200.0 mg/kg/injection, schedule: Q01DX009 (ip), vehicle: saline with Tween-80
[8] = endpoint: mean survival time, dose: 100.0 mg/kg/injection, schedule: Q04DX003 (ip), vehicle: saline with Tween-80
[9] = endpoint: mean survival time, dose: 200.0 mg/kg/injection, schedule: Q04DX003 (ip), vehicle: saline with Tween-80
[10] = endpoint: mean survival time, dose: 400.0 mg/kg/injection, schedule: Q04DX003 (ip), vehicle: saline with Tween-80
[11] = endpoint: mean survival time, dose: 100.0 mg/kg/injection, schedule: Q04DX003 (ip), vehicle: saline sonified
[12] = endpoint: mean survival time, dose: 200.0 mg/kg/injection, schedule: Q04DX003 (ip), vehicle: saline sonified
[13] = endpoint: mean survival time, dose: 400.0 mg/kg/injection, schedule: Q04DX003 (ip), vehicle: saline sonified
[14] = endpoint: mean survival time, dose: 50.0 mg/kg/injection, schedule: Q04DX003 (ip), vehicle: saline
[15] = endpoint: mean survival time, dose: 100.0 mg/kg/injection, schedule: Q04DX003 (ip), vehicle: saline
[16] = endpoint: mean survival time, dose: 400.0 mg/kg/injection, schedule: Q01DX009 (ip), vehicle: saline with Tween-80
[17] = endpoint: mean survival time, dose: 100.0 mg/kg/injection, schedule: Q01DX001 (ip), vehicle: saline with Tween-80
[18] = endpoint: mean survival time, dose: 200.0 mg/kg/injection, schedule: Q01DX001 (ip), vehicle: saline with Tween-80
[19] = endpoint: mean survival time, dose: 400.0 mg/kg/injection, schedule: Q01DX001 (ip), vehicle: saline with Tween-80

Measured: T/C

NC(=O)C(CO)NC(=O)OCc1ccccc1 (stereo not drawn)
inactive: [1] 103 % of control | [2] 104 % of control | [3] 95 % of control | [4] 97 % of control | endpoint: mean survival time, dose: 400.0 mg/kg/injection, schedule: Q01DX005 (ip), vehicle: water 93 % of control

CCCCCC(=O)C(C)C(C)C (stereo not drawn)
inactive: [5] 97 % of control | [6] 97 % of control | [7] 97 % of control

NP(=O)(OCCCOCc1ccccc1)N(CCCl)CCCl (stereo not drawn)
inactive: endpoint: mean survival time, dose: 12.5 mg/kg/injection, schedule: Q01DX005 (ip), vehicle: water 95 % of control | [1] 94 % of control | [2] 100 % of control | [3] 100 % of control | [4] 101 % of control

[O-][n+]1c2cccc(O)c2[n+]([O-])c2cccc(O)c21
inactive: [8] 91 % of control | [9] 100 % of control | [10] 103 % of control

Cc1cscc(C)c1=S
inactive: [11] 98 % of control | [12] 98 % of control | [13] 100 % of control

NC(CS/C=C\C(=O)O)C(=O)O (stereo not drawn)
inactive: [8] 101 % of control | [10] 93 % of control

Cc1cccc(OCC(O)CN2CC2)c1 (stereo not drawn)
inactive: endpoint: median survival time, dose: 12.5 mg/kg/injection, schedule: Q01DX005 (ip), vehicle: saline with Tween-80 97 % of control and 107 % of control | endpoint: median survival time, dose: 25.0 mg/kg/injection, schedule: Q01DX005 (ip), vehicle: saline with Tween-80 115 % of control and 111 % of control | endpoint: median survival time, dose: 36.0 mg/kg/injection, schedule: Q01DX005 (ip), vehicle: saline with Tween-80 104 % of control | endpoint: median survival time, dose: 50.0 mg/kg/injection, schedule: Q01DX005 (ip), vehicle: saline with Tween-80 113 % of control and 108 % of control | endpoint: median survival time, dose: 60.0 mg/kg/injection, schedule: Q01DX005 (ip), vehicle: saline with Tween-80 113 % of control | endpoint: median survival time, dose: 100.0 mg/kg/injection, schedule: Q01DX005 (ip), vehicle: saline with Tween-80 106 % of control | endpoint: median survival time, dose: 166.66 mg/kg/injection, schedule: Q01DX005 (ip), vehicle: saline with Tween-80 110 % of control

CN(C)Cc1[c-]c(CN(C)C)ccc1.[Br][Pt]
inactive: endpoint: mean survival time, dose: 3.12 mg/kg/injection, schedule: Q04DX003 (ip), vehicle: saline 96 % of control | endpoint: mean survival time, dose: 6.25 mg/kg/injection, schedule: Q04DX003 (ip), vehicle: saline 97 % of control | endpoint: mean survival time, dose: 12.5 mg/kg/injection, schedule: Q04DX003 (ip), vehicle: saline 97 % of control | endpoint: mean survival time, dose: 25.0 mg/kg/injection, schedule: Q04DX003 (ip), vehicle: saline 108 % of control | [14] 97 % of control | [15] 105 % of control | endpoint: mean survival time, dose: 200.0 mg/kg/injection, schedule: Q04DX003 (ip), vehicle: saline 100 % of control

CCOP(=O)(OCC)C(c1ccccc1)(c1ccccc1)c1ccccc1
inactive: endpoint: mean survival time, dose: 100.0 mg/kg/injection, schedule: Q01DX001 (ip), vehicle: Klucel (hydroxypropylcellulose) (HPC) 103 % of control | endpoint: mean survival time, dose: 200.0 mg/kg/injection, schedule: Q01DX001 (ip), vehicle: Klucel (hydroxypropylcellulose) (HPC) 96 % of control | endpoint: mean survival time, dose: 400.0 mg/kg/injection, schedule: Q01DX001 (ip), vehicle: Klucel (hydroxypropylcellulose) (HPC) 102 % of control

CC/C=C(\CC)CO
inactive: [5] 100 % of control | [6] 95 % of control | [7] 100 % of control

C=C1C(O)CC2CC1C2(C)C (stereo not drawn)
inactive: [5] 98 % of control

O=C(O)CCC(=O)c1cccc(O)c1
inactive: endpoint: mean survival time, dose: 100.0 mg/kg/injection, schedule: Q01DX001 (ip), vehicle: saline 103 % of control | endpoint: mean survival time, dose: 200.0 mg/kg/injection, schedule: Q01DX001 (ip), vehicle: saline 104 % of control | endpoint: mean survival time, dose: 400.0 mg/kg/injection, schedule: Q01DX001 (ip), vehicle: saline 103 % of control

Cc1nc(SCc2ccccc2)[nH]c(=O)c1CCO
inactive: [8] 96 % of control | [9] 96 % of control

ONc1ccccn1
inactive: endpoint: mean survival time, dose: 25.0 mg/kg/injection, schedule: Q01DX009 (ip), vehicle: saline 101 % of control | endpoint: mean survival time, dose: 50.0 mg/kg/injection, schedule: Q01DX009 (ip), vehicle: saline 96 % of control | [14] 98 % of control | endpoint: mean survival time, dose: 100.0 mg/kg/injection, schedule: Q01DX009 (ip), vehicle: saline 95 % of control | [15] 98 % of control

N#CC1C(=N)Cc2ccccc2-c2ccccc21 (stereo not drawn)
inactive: [6] 96 % of control | [8] 108 % of control | [7] 93 % of control | [9] 101 % of control | [16] 106 % of control | [10] 101 % of control

COc1ccc(C2(C(=O)O)CC(C)=C(C)CC2C(=O)O)cc1 (stereo not drawn)
inactive: [5] 88 % of control | [6] 93 % of control | [8] 97 % of control | [9] 95 % of control

C=CC1CC=CCC1 (stereo not drawn)
inactive: [6] 103 % of control | [7] 106 % of control

CC(Cl)CN(CC(C)Cl)c1ccc2c(c1)Cc1cc([N+](=O)[O-])ccc1-2 (stereo not drawn)
inactive: [8] 93 % of control | [9] 96 % of control | [10] 96 % of control

NC(=S)N/N=C/c1ccc2c(c1)OCO2
inactive: [5] 98 % of control | [6] 110 % of control | [7] 98 % of control

c1ccc(CCSCCSCCc2ccccn2)nc1
inactive: endpoint: mean survival time, dose: 50.0 mg/kg/injection, schedule: Q04DX002 (ip), vehicle: saline with Tween-80 101 % of control | endpoint: mean survival time, dose: 100.0 mg/kg/injection, schedule: Q04DX002 (ip), vehicle: saline with Tween-80 113 % of control | endpoint: mean survival time, dose: 200.0 mg/kg/injection, schedule: Q04DX002 (ip), vehicle: saline with Tween-80 101 % of control | endpoint: mean survival time, dose: 400.0 mg/kg/injection, schedule: Q04DX002 (ip), vehicle: saline with Tween-80 93 % of control

CCCCCCCNC(=O)Nc1cc([N+](=O)[O-])ccc1C
inactive: [8] 93 % of control | [9] 94 % of control | [10] 98 % of control

COc1ccc(CCNC(=O)CCN2C(=O)CCC2=O)cc1OC
inactive: [6] 98 % of control | [11] 101 % of control | [7] 96 % of control | [12] 101 % of control | [16] 100 % of control | [13] 98 % of control

NC(=O)N/N=C/COC(=O)c1ccccc1
inactive: [17] 93 % of control | [18] 91 % of control | [19] 98 % of control

CC1=C(c2ccccc2)C(c2ccccc2)c2ccccc21 (stereo not drawn)
inactive: [17] 94 % of control | [18] 93 % of control | [19] 92 % of control

Cc1ccc(S(=O)(=O)N/N=C2\CC3CCC2(C)C3(C)C)cc1 (stereo not drawn)
inactive: [5] 96 % of control | [6] 88 % of control | [7] 100 % of control

CC(=O)OCC1OC(N2C(=O)/C(=C/c3ccc(Cl)cc3)SC2=S)C(OC(C)=O)C(OC(C)=O)C1OC(C)=O (stereo not drawn)
inactive: endpoint: mean survival time, dose: 3.13 mg/kg/injection, schedule: Q01DX005 (ip), vehicle: distilled water + Tween-80 102 % of control | endpoint: mean survival time, dose: 6.25 mg/kg/injection, schedule: Q01DX005 (ip), vehicle: distilled water + Tween-80 96 % of control | endpoint: mean survival time, dose: 12.5 mg/kg/injection, schedule: Q01DX005 (ip), vehicle: distilled water + Tween-80 106 % of control | endpoint: mean survival time, dose: 25.0 mg/kg/injection, schedule: Q01DX005 (ip), vehicle: distilled water + Tween-80 95 % of control

O=[N+]([O-])c1ccc(Nc2ccc(Br)cc2)c([N+](=O)[O-])c1
inactive: [8] 95 % of control | [9] 93 % of control
